Earlier results, collected in patent US10561625B2, “Methods of treatment using sustained release sotalol formulations” (The Roshni Singh 2015 Trust, priority 2004, dated 2020).
Structures can show the parent of a compound that is named as a salt.

Tests used:
[1] = not given; remark: listed apart in the source

solubility in water	elimination (exclusively renal) half-life ([1]; administered twice daily)	peak plasma concentration (time) ([1]; after a dose of the current formulation)	mean elimination half-life ([1]; current formulation)	bioavailability ([1]; in vivo)	absorbed after oral ingestion ([1]; oral, no first-pass hepatic metabolism)	plasma half-life ([1]; in vivo)	SMILES
freely soluble in water	8 to 12 h	2 to 3 h	about 12 hours	100%	100%		CC(C)NCC(O)c1ccc(NS(C)(=O)=O)cc1 (racemic) [Sotalol, 4′-(2-isopropylaminoethyl-1-hydroxy) methanesulphonanilide hydrochloride]
freely soluble in water						2.5 to 9.5 h	COCCc1ccc(OCC(O)CNC(C)C)cc1 (centres unmarked) [Metoprolol]
